Measured values: PubChem BioAssay (NCI)
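Briefly, cells in 96-well plates were exposed to five compound concentrations for 48 h, and endpoints were estimated by linear interpolation. GI50 = concentration required for 50% inhibition of growth. The concentration for full growth arrest is given as TGI.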

What was measured:
Experiment in all cases: inhibition of tumour cell growth, NCI panel, 48 h
NCI-H522 lung = test system: NCI-H522 lung
SW-620 colon = test system: SW-620 colon
HL-60(TB) leukemia = test system: HL-60(TB) leukemia
MOLT-4 leukemia = test system: MOLT-4 leukemia
UACC-62 melanoma = test system: UACC-62 melanoma
HT29 colon = test system: HT29 colon
LOX IMVI melanoma = test system: LOX IMVI melanoma
NCI-H226 lung = test system: NCI-H226 lung
ACHN renal = test system: ACHN renal
HOP-92 NSCLC = test system: HOP-92 NSCLC

| SMILES | GI50 (NCI-H522 lung) [µM] | TGI (NCI-H522 lung) [µM] | GI50 (SW-620 colon) [µM] | TGI (SW-620 colon) [µM] | GI50 (HL-60(TB) leukemia) [µM] | TGI (HL-60(TB) leukemia) [µM] | GI50 (MOLT-4 leukemia) [µM] | TGI (MOLT-4 leukemia) [µM] | GI50 (UACC-62 melanoma) [µM] | TGI (UACC-62 melanoma) [µM] | GI50 (HT29 colon) [µM] | TGI (HT29 colon) [µM] | GI50 (LOX IMVI melanoma) [µM] | TGI (LOX IMVI melanoma) [µM] | GI50 (NCI-H226 lung) [µM] | TGI (NCI-H226 lung) [µM] | GI50 (ACHN renal) [µM] | TGI (ACHN renal) [µM] | TGI (HOP-92 NSCLC) [µM] | GI50 (HOP-92 NSCLC) [µM] |
| --- | --- | --- | --- | --- | --- | --- | --- | --- | --- | --- | --- | --- | --- | --- | --- | --- | --- | --- | --- | --- |
| C[C@@]1(C(=O)O)CCC[C@]2(C)C1CC[C@]13C[C@@](O)(CO)[C@](O)(CC[C@]12O)C3 (stereo partly specified) | > 100 | > 100 | > 100 | > 100 | > 100 | > 100 | > 100 | > 100 | > 100 | > 100 | > 100 | > 100 | > 100 | > 100 | > 100 | > 100 | > 100 | > 100 | – | – |
| C[C@]12CC(C=O)C(=O)C(O)=C1CC[C@@H]1C2CC[C@@]2(C)C1CC[C@]2(C)O (stereo partly specified) | – | – | – | > 100 | – | 41.5 | – | 52 | – | 36.5 | – | 23.5 | – | 24.7 | – | 39.5 | – | 51.2 | 33.4 | – |
| C=CC(=O)Nc1ccccc1CC(c1c[nH]c2ccccc12)c1c[nH]c2ccccc12 | – | 48.2 | – | 39.2 | – | – | – | 46.4 | – | 31.2 | – | 37.5 | – | 36.3 | – | 40.1 | – | – | – | – |
| C=C(C)C1CCC2=CC(CC3(C)OC3C3=CC(C(=O)OC)=C(C1)O3)OC2=O (stereo unspecified) | – | > 100 | – | > 100 | – | – | – | > 100 | – | – | – | > 100 | – | > 100 | – | > 100 | – | > 100 | > 100 | – |
| CN(CCCN1C(=O)c2cccc3cc([N+](=O)[O-])cc(c23)C1=O)CCN(C)CCCN1C(=O)c2cccc3cc([N+](=O)[O-])cc(c23)C1=O | – | > 39.3 | – | > 39.3 | – | > 39.3 | – | > 39.3 | – | > 39.3 | – | > 39.3 | – | – | – | > 39.3 | – | > 39.3 | – | – |
| COc1ccc2c(CCCc3ccc(Cl)cc3Cl)c3[n+](cc2c1OC)CCc1cc2c(cc1-3)OCO2 | – | – | 0.383 | 1.58 | 0.23 | 0.838 | – | – | 0.284 | 1.38 | – | – | 0.37 | 1.44 | – | – | 1.44 | 3.15 | 1.14 | 0.228 |
| C(=C\c1ccncc1)/c1ccncc1 | – | – | > 100 | > 100 | > 100 | > 100 | > 100 | > 100 | > 100 | > 100 | > 100 | > 100 | > 100 | > 100 | > 100 | > 100 | > 100 | > 100 | > 100 | 74.9 |
| CCOC(=O)C(=O)Nc1c(C)cccc1C(C)(C)C | – | > 100 | – | > 100 | – | – | – | > 100 | – | > 100 | – | > 100 | – | > 100 | – | > 100 | – | > 100 | > 100 | – |
| CN(C)CC1C(=O)O[C@H]2[C@H]1CC/C(COC(=O)NCc1ccc(Cn3c(=O)sn(CCCI)c3=O)cc1)=C\CC[C@@]1(C)O[C@@H]21 (stereo partly specified) | 0.742 | 1.68 | 0.998 | 2.09 | – | – | 0.947 | 3.43 | 1.28 | 3.97 | 0.945 | 1.84 | 0.913 | 1.69 | 7.32 | 17.6 | 0.861 | 1.58 | 2.56 | 0.786 |
| Cc1ccc(C2[C@H]3C(=O)N(c4ccc(Cc5ccc(N6C(=O)[C@@H]7ON(c8ccccc8)C(c8ccc(C)cc8)[C@@H]7C6=O)cc5)cc4)C(=O)[C@H]3ON2c2ccccc2)cc1 (stereo partly specified) | – | – | – | > 100 | – | > 100 | – | > 100 | – | > 100 | – | > 100 | – | > 100 | – | > 100 | – | > 100 | > 100 | – |
| O=[N+]([O-])c1ccc(C2SCc3nc4ccccc4n32)cc1 (stereo unspecified) | – | – | – | > 100 | – | > 100 | – | > 100 | – | > 100 | – | > 100 | – | > 100 | – | > 100 | – | > 100 | 91.3 | – |
| O=C1NC2C3CC(OCc4ccccc4)(OCc4ccccc4)C2OC3O1 (stereo unspecified) | – | – | – | > 50 | – | > 50 | – | > 50 | – | > 50 | – | > 50 | – | > 50 | – | > 50 | – | – | > 50 | – |
| CN(C)CCNC(=O)c1cccc2c1Oc1cccc([N+](=O)[O-])c1O2 | – | 32.9 | – | 46.2 | – | 51.7 | – | 27.1 | – | 33 | – | 33.5 | – | – | – | 27.9 | – | 37.5 | – | – |
| COc1cc2c3c(n([C@@H]4CCOC4)c(=O)c2cc1OC)-c1cc2c(cc1C3=O)OCO2 | < 0.01 | > 100 | < 0.01 | > 100 | < 0.01 | > 100 | < 0.01 | > 100 | – | – | 0.0141 | > 100 | – | – | – | – | – | – | – | – |
